According to publication PMC9635472, “Design, synthesis, and biological evaluation of novel ciprofloxacin derivatives as potential anticancer agents targeting topoisomerase II enzyme” (Journal of Enzyme Inhibition and Medicinal Chemistry, 2022):

How the values were obtained:
[1] = system: Human bladder cancer (T-24) cell line; assay: MTT cell viability assay, T-24 cells; assay type: cell-based; details: bladder cancer cell line T-24, treatment for 24 h (table title), means of three experiments, read-out: IC50 (μM* ± SD) T-24
Method: (§1) Human bladder cancer (T-24) and human prostate carcinoma (PC-3) cell lines were obtained from American Type Culture Collection (ATCC; Manassas, VA USA). Cells were maintained in Dulbecco’s modified Eagle medium with 10% foetal bovine serum at 37 °C and 5% CO2. All the operations were carried out under strict aseptic conditions. The culture medium was removed to a centrifuge tube containing 9.0 ml complete culture medium and spanned at approximately 125 × g for 5 to 7 min. The cell layer was rinsed with 0.25% (w/v) trypsin- […] EDTA solution by which all traces of serum-containing inhibitor were removed. Trypsin EDTA solution 2.0 to 3.0 ml was added to a flask and cells were monitored under an inverted microscope until the cell layer was dispersed (usually within 5–15 min). A complete growth medium was added (6.0–8.0 ml), and cells were aspirated by gentle pipetting. The cell pellet was suspended with the recommended complete medium and dispensed into a 75 cm^2 culture flask. The culture vessel containing the complete growth medium was placed in the incubator for 24 h to at 37 °C. The cells were treated with different concentrations (0.39, 1.60, 6.25, 25, and 100 μg/ml) of each of the test compounds or doxorubicin, […], then the plates were examined under the inverted microscope and finally the MTT assay was carried out.
(§2) Anti-cancer activity of the newly synthesised compounds was evaluated in vitro against both T-24 and PC-3 cell lines according to the MTT method. Cells were seeded into 96-well plates (flat bottom) at a density of 10 000 cells/well for 24 h. The vial of MTT to be used was reconstituted with 3 ml of medium or balanced salt solution without phenol red and serum. then, a reconstituted MTT vial was added in an amount equal to 10% of the culture medium volume. Cultures were incubated for 2–4 h depending on the cell type and maximum cell density and removed from the incubator and the formazan crystals were dissolved via the addition of an amount of MTT solubilisation solution (M-8910) equal to the original culture medium volume. ROBONIK P2000 spectrophotometer at a wavelength of 570 nm was used to measure the colour intensity spectrophotometrically. The survival curve of both T-24 and PC-3 cells was obtained by plotting the percentage of surviving cells against the drug after each compound. The IC50 value for each test compound and the reference drug doxorubicin was calculated.
(§3) In this study, all the newly synthesised CP derivatives were subjected to anticancer activity evaluation against bladder (T-24) and prostate cancer (PC-3) cell lines. The compounds were evaluated for their activity using 5 doses determinations (100 μg/ml, 25 μg/ml, 6.25 μg/ml, 1.60 μg/ml, and 0.39 μg/ml). Their half-maximal inhibitory concentration (IC50) values were measured. Doxorubicin was chosen as a reference anticancer drug[65].

PC-3 cells = assay: Cell cycle analysis (propidium iodide flow cytometry), PC-3 cells; assay type: cell-based, human; details: for phase of cell cycle arrest: PC-3 cells at IC50 concentrations
Method: The cell cycle was done using a propidium iodide flow cytometry kit (Abcam, ab139418) according to the manufacturer’s instructions. […] After treatment, the cells were washed twice with ice-cold phosphate buffer saline, then centrifuged and fixed using ice-cold 66% (v/v) ethanol, washed with phosphate buffer saline re-suspended with 0.10 mg/ml, and stained with 200 µl propidium iodide. Cells were analysed by flow cytometry. The cell cycle distributions were calculated using cell–quest software (Bectopn Dickinson).
Topoisomerase inhibitors cause DNA damage which is related to G1/S and S phase arrest. Cell cycle arrest prevents the replication of damaged DNA. In PC-3 cell line compounds 6 and 8a probably arrested the cell cycle in the G1 phase by inhibition of Cyclin D–Cdk4–Cdks complex, however in the T-24 cell line, they might arrest the cell cycle in the S phase by the inhibition of both Cyclin D–Cdk4–Cdks complex and cyclins E1–E2/Cdk2, which promote G1/S transition.

human DNA Topo II = target: T1, human DNA Topo II (Homo sapiens, UniProt P11388); assay: In vitro DNA Topo II-mediated relaxation assay (supercoiled pBR322); assay type: biochemical; details: for IC50: means of three experiments, read-out: Topo II IC50 (µM*±SD); for inhibition at 0.1 µM / inhibition at 1 µM / inhibition at 10 µM / inhibition at 100 µM: recombinant Topo II relaxation; for inhibition at 0.1 µM: compound at 0.1 μM, read-out: Percentage of inhibition of Topo II, 0.1 μM; for inhibition at 1 µM: compound at 1 μM, read-out: Percentage of inhibition of Topo II, 1 μM; for inhibition at 10 µM: compound at 10 μM, read-out: Percentage of inhibition of Topo II, 10 μM; for inhibition at 100 µM: compound at 100 μM, read-out: Percentage of inhibition of Topo II, 100 μM
T1 construct: purchased USB Corp., USA
T1 sequence (P11388 whole entry): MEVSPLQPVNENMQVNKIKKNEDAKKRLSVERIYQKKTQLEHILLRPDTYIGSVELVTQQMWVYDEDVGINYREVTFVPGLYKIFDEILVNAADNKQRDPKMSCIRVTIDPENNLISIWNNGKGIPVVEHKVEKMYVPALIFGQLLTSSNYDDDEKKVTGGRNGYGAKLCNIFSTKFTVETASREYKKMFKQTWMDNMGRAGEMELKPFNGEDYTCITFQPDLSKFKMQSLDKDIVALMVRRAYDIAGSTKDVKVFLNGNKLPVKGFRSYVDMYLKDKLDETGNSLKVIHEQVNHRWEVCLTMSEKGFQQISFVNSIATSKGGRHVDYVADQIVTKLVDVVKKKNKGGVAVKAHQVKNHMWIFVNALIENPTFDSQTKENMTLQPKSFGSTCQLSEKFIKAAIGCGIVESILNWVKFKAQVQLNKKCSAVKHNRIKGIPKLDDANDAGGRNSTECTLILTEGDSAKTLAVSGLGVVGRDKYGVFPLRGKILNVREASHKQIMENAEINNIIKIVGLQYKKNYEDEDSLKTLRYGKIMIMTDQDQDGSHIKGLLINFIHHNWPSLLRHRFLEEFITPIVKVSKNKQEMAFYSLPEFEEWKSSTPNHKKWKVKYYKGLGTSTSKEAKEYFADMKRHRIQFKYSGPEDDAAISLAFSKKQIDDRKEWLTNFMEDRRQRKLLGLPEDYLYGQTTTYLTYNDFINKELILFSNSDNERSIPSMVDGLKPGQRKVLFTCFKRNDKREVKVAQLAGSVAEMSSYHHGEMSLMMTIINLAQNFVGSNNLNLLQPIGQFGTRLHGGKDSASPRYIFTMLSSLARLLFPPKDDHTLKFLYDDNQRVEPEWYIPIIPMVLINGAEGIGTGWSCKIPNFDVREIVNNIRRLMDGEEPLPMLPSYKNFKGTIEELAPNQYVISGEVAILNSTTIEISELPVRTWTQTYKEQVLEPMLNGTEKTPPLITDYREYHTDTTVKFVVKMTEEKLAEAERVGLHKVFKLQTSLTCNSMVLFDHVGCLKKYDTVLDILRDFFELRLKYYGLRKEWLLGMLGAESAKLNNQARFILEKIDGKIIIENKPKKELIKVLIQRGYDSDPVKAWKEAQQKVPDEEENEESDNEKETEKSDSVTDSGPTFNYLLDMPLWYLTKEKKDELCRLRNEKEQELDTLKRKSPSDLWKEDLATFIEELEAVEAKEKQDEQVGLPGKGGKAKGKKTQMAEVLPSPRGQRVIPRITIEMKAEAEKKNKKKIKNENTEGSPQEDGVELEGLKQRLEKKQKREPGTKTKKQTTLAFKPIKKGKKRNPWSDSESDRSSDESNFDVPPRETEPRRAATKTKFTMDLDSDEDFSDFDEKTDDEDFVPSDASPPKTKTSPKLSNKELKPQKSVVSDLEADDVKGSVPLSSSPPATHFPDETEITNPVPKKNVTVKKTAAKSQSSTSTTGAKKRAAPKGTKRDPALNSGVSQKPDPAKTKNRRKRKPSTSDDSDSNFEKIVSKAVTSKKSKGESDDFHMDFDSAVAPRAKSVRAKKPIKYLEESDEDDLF
Method: DNA Topo II inhibitory activities of the targeted compounds were measured as follows. A mixture of 100 ng of supercoiled pBR322 plasmid DNA (Fermentas, USA) and 2 units of human DNA Topo II (USB Corp., USA) was incubated with and without the prepared compounds in the assay buffer (10 µM Tris-HCl pH 7.9) containing 50 µM NaCl, 4 µM MgCl2, 1 µM EDTA, 1 µM ATP, and 15 mg/ml bovine serum albumin for 30 min at 37 °C. The reaction in a final volume of 10 µl was terminated by the addition of 4 µl of 6 µM EDTA. DNA samples were then electrophoresed on 1% agarose gel containing 0.5 µg/ml ethidium bromide in gel and buffer at high voltage (100–250 v) until the dye front has migrated about 4–6 cm down the gel. with a running buffer of TAE Tris-acetate– EDTA (TAE). Gels were stained for 15 min in water. DNA bands were visualised by transillumination with UV light and quantitated using AlphaI-maker TM (Alpha Innotech Corporation).
Well-known Topo II inhibitor doxorubicin was used as a positive control. The reaction products of Topo II relaxation assays were analysed by electrophoretic mobility and developed in ethidium bromide in the presence of UV light. The inhibitory activities were evaluated at 4 concentrations of 100, 10, 1, and 0.1 μM for all compounds as shown in (Figure 6). Topo II inhibitory activities of the tested compounds are summarised in (Table 2).

[2] = system: human prostate carcinoma (PC-3) cell line; assay: MTT cell viability assay, PC-3 cells; assay type: cell-based; details: prostate cancer cell line PC-3, treatment for 24 h (table title), means of three experiments, read-out: IC50 (μM* ± SD) PC-3
Method: as §1, §2, §3

active caspase-3 = assay: Active caspase-3 ELISA in T-24 cells; assay type: cell-based, human; details: 6 at 5.68 μM, 8a at 3.36 μM; for Caspase-3 conc. (pg/ml* ± SD): means of three experiments
Method: The level of the apoptotic marker caspase-3 was measured using The Invitrogen Caspase-3 (active) Human ELISA Kit. The procedure of the used kit was done according to the manufacturer’s instructions.
Caspase-3 (a key effector enzyme) plays an important role in apoptosis since its activation leads to catalysing specific enzymes responsible for DNA fragmentation, which leads to cell death. Apoptosis induction in T-24 cells by compounds 6 and 8a was investigated via caspase 3, compared to doxorubicin as a reference drug.

IC50 [1] [µM] | IC50 (human DNA Topo II) [µM] | inhibition at 0.1 µM (human DNA Topo II) [%] | inhibition at 1 µM (human DNA Topo II) [%] | inhibition at 10 µM (human DNA Topo II) [%] | inhibition at 100 µM (human DNA Topo II) [%] | IC50 [2] [µM] | SMILES | phase of cell cycle arrest (PC-3 cells) | decrease in the percentage of cells at the G2/M phase (PC-3 cells; PC-3 cells, at IC50, 24 h) [fold] | increase in the percentage of cells at the G1 phase compared to the control (PC-3 cells; PC-3 cells, at IC50, 24 h) [fold] | increase in level of active caspase-3 compared to the control (active caspase-3) [fold] | Caspase-3 conc. (pg/ml* ± SD) (active caspase-3) [pg/mL]
5.68 ± 0.3 | 0.92 ± 0.05 | 28 | 51.9 | 76.3 | 87.4 | 92.2 ± 4.69 | O=C1CC(=O)N(C(=O)CN2CCN(c3cc4c(cc3F)c(=O)c(C(=O)O)cn4C3CC3)CC2)N1 [Compound 6, 1-cyclopropyl-7-(4-(2-(3,5-dioxopyrazolidin-1-yl)-2-oxoethyl)piperazin-1-yl)-6-fluoro-4-oxo-1,4-dihydroquinoline-3-carboxylic acid] | G1-phase cell cycle arrest | 1.5 | 1.16 | 5.23 | 362.9 ± 8.58
3.36 ± 0.19 | 0.74 ± 0.04 | 32.5 | 50.3 | 77.4 | 91.6 | 11 ± 0.56 | O=C(CN1CCN(c2cc3c(cc2F)c(=O)c(C(=O)O)cn3C2CC2)CC1)NN=C1C(=O)Nc2ccccc21 [Compound 8a, 1-Cyclopropyl-6-fluoro-4-oxo-7-(4-(2-oxo-2-(2-(2-oxoindolin-3-ylidene)hydrazinyl)ethyl)piperazin-1-yl)-1,4-dihydroquinoline-3-carboxylic acid] | G1-phase cell cycle arrest |  | 1.27 | 7.6 | 527.6 ± 8.39
